Experimental data reported in patent US20100280010A1, “CHEMICAL COMPOUNDS” (priority 2006, published 2010).

system: HIV-1 (Ba-L or IIIB) infection of HOS cell line (expressing hCXCR4/hCCR5/hCD4/pHIV-LTR-luciferase); experiment: HOS HIV-1 Infectivity Assay; assay type: cell-based; conditions: Human immunodeficiency virus 1, HOS, virus strain not given, read-out: Activity Level
Procedure: Compounds were profiled against two HIV-1 viruses, the M-tropic (CCR5 utilizing) Ba-L strain and the T-tropic (CXCR4 utilizing) IIIB strain. Ba-L was propagated in either peripheral blood lymphocytes or SupT1/CCR5+/CXCR4+ cells. IIIB was propagated in peripheral blood lymphocytes. Compounds were tested for their ability to block infection of the HOS cell line (expressing hCXCR4/hCCR5/hCD4/pHIV-LTR-luciferase) by either HIV-1 Ba-L or HIV-1 IIIB. Compound cytotoxicity was also examined in the absence of virus addition.
HOS cells (expressing hCXCR4/hCCR5/hCD4/pHIV-LTR-luciferase) were harvested and diluted in Dulbeccos modified Eagles media supplemented with 2% FCS to a concentration of 120,000 cells/ml. The cells were plated into 96-well plates (50 μl per well) and the plates were placed in a tissue culture incubator ([…]; 5% CO2195% air) for a period of 24 h.
Subsequently, 50 μl of the desired drug solution (2 times the final concentration) was added to each well and the plates were returned to the tissue culture incubator (370° C.; 5% CO2/95% air) for 1 h. Following this incubation, 60 μl of diluted virus (4 times the final concentration) was added to 60 μl of 2× the final desired concentration of the compound and 100 μl of this compound/virus mix was added to each well (approximately 2 million RLU per well of virus). The plates were returned to the tissue culture incubator (370° C.; 5% CO2/95% air) and were incubated for a further 96 h.
Following this incubation the endpoint for the virally infected cultures was quantified following addition of Steady-Glo Luciferase assay system reagent (Promega, Madison, Wis.). Cell viability or non-infected cultures was measured using a CellTiter-Glo luminescent cell viability assay system (Promega, Madison, Wis.). All luminescent readouts are performed on a Topcount luminescence detector (Packard, Meridien, Conn.).

**Q.** For `CC(=O)c1c(CN(C)[C@H]2CCCc3cccnc32)nc2cccc(N3CCN(C)CC3)n12` [Example 14, 1-[5-(4-Methyl-1-piperazinyl)-2-({methyl[(8S)-5,6,7,8-tetrahydro-8-quinolinyl]amino}methyl)imidazo[1,2-a]pyridin-3-yl]ethanone], which IC50 is on record?
**A.** The IC50 was under 0.1 µM.

**Q.** For `CN1CCN(c2cccc3nc(CN(C)[C@H]4CCCc5cccnc54)c(Br)n23)CC1` [Example 16, (8S)—N-{[3-Bromo-5-(4-methyl-1-piperazinyl)imidazo[1,2-a]pyridin-2-yl]methyl}-N-methyl-5,6,7,8-tetrahydro-8-quinolinamine], which IC50 is on record?
**A.** Its IC50 is under 0.1 µM.

**Q.** With `CN1CCN(c2cccc3nc(CN(C)[C@H]4CCCc5cccnc54)c(C#N)n23)CC1` [Example 17, 5-(4-Methyl-1-piperazinyl)-2-({methyl[(8S)-5,6,7,8-tetrahydro-8-quinolinyl]amino}methyl)imidazo[1,2-a]pyridine-3-carbonitrile] as the compound, how does the IC50 read?
**A.** Its IC50 is under 0.1 µM.

**Q.** `CN1CCN(c2cccc3nc(CN(C)[C@H]4CCCc5cccnc54)c(C(N)=O)n23)CC1` [Example 18, 5-(4-Methyl-1-piperazinyl)-2-({methyl[(8S)-5,6,7,8-tetrahydro-8-quinolinyl]amino}methyl)imidazo[1,2-a]pyridine-3-carboxamide] was tested. Which IC50 did it give?
**A.** The IC50 was under 0.1 µM.

**Q.** How did the IC50 turn out when `CCN(Cc1nc2cccc(N3CCN(C)CC3)n2c1C#N)[C@H]1CCCc2cccnc21` [Example 21, 2-({Ethyl[(8S)-5,6,7,8-tetrahydro-8-quinolinyl]amino}methyl)-5-(4-methyl-1-piperazinyl)imidazo[1,2-a]pyridine-3-carbonitrile] was run?
**A.** Its IC50 is under 0.1 µM.

**Q.** `CCN(Cc1nc2cccc(N3CCN(C)CC3)n2c1C(N)=O)[C@H]1CCCc2cccnc21` [Example 22, 2-({Ethyl[(8S)-5,6,7,8-tetrahydro-8-quinolinyl]amino}methyl)-5-(4-methyl-1-piperazinyl)imidazo[1,2-a]pyridine-3-carboxamide] was tested. Which IC50 did it give?
**A.** Its IC50 is under 0.1 µM.

**Q.** How did the IC50 turn out when `CCCN(Cc1nc2cccc(N3CCN(C)CC3)n2c1C#N)[C@H]1CCCc2cccnc21` [Example 25, 5-(4-Methyl-1-piperazinyl)-2-({propyl[(8S)-5,6,7,8-tetrahydro-8-quinolinyl]amino}methyl)imidazo[1,2-a]pyridine-3-carbonitrile] was run?
**A.** The IC50 was under 0.1 µM.

**Q.** `CCCN(Cc1nc2cccc(N3CCN(C)CC3)n2c1C(N)=O)[C@H]1CCCc2cccnc21` [Example 26, 5-(4-Methyl-1-piperazinyl)-2-({propyl[(8S)-5,6,7,8-tetrahydro-8-quinolinyl]amino}methyl)imidazo[1,2-a]pyridine-3-carboxamide] was tested. Which IC50 did it give?
**A.** The IC50 was under 0.1 µM.

**Q.** With `CC(C)N(Cc1nc2cccc(N3CCN(C)CC3)n2c1C#N)[C@H]1CCCc2cccnc21` [Example 29, 2-({(1-Methylethyl)[(8S)-5,6,7,8-tetrahydro-8-quinolinyl]amino}methyl)-5-(4-methyl-1-piperazinyl)imidazo[1,2-a]pyridine-3-carbonitrile] as the compound, how does the IC50 read?
**A.** Its IC50 is under 0.1 µM.

**Q.** For `CC(C)N(Cc1nc2cccc(N3CCN(C)CC3)n2c1C(N)=O)[C@H]1CCCc2cccnc21` [Example 30, 2-([(1-Methylethyl)[(8S)-5,6,7,8-tetrahydro-8-quinolinyl]amino]methyl)-5-(4-methyl-1-piperazinyl)imidazo[1,2-a]pyridine-3-carboxamide], which IC50 is on record?
**A.** Its IC50 is under 0.1 µM.

**Q.** How did the IC50 turn out when `CN1CCN(c2cccc3nc(CN(CC4CC4)[C@H]4CCCc5cccnc54)c(C#N)n23)CC1` [Example 33, 2-({(Cyclopropylmethyl)[(8S)-5,6,7,8-tetrahydro-8-quinolinyl]amino}methyl)-5-(4-methyl-1-piperazinyl)imidazo[1,2-a]pyridine-3-carbonitrile] was run?
**A.** The IC50 was under 0.1 µM.

**Q.** How did the IC50 turn out when `CN(C)[C@@H]1CCN(c2cccc3nc(CN(C)[C@H]4CCCc5cccnc54)c(C#N)n23)C1` [Example 38, 5-[(3R)-3-(Dimethylamino)-1-pyrrolidinyl]-2-({methyl[(8S)-5,6,7,8-tetrahydro-8-quinolinyl]amino}methyl)imidazo[1,2-a]pyridine-3-carbonitrile] was run?
**A.** Its IC50 is under 0.1 µM.

**Q.** How did the IC50 turn out when `CN(C)[C@@H]1CCN(c2cccc3nc(CN(C)[C@H]4CCCc5cccnc54)c(C(N)=O)n23)C1` [Example 39, 5-[(3R)-3-(Dimethylamino)-1-pyrrolidinyl]-2-({methyl[(8S)-5,6,7,8-tetrahydro-8-quinolinyl]amino}methyl)imidazo[1,2-a]pyridine-3-carboxamide] was run?
**A.** The IC50 was under 0.1 µM.

**Q.** For `CCN(Cc1nc2cccc(N3CC[C@@H](N(C)C)C3)n2c1C#N)[C@H]1CCCc2cccnc21` [Example 42, 5-[(3R)-3-(Dimethylamino)-1-pyrrolidinyl]-2-({ethyl[(8S)-5,6,7,8-tetrahydro-8-quinolinyl]amino}methyl)imidazo[1,2-a]pyridine-3-carbonitrile], which IC50 is on record?
**A.** Its IC50 is under 0.1 µM.

**Q.** For `CCN(Cc1nc2cccc(N3CC[C@@H](N(C)C)C3)n2c1C(N)=O)[C@H]1CCCc2cccnc21` [Example 43, 5-[(3R)-3-(Dimethylamino)-1-pyrrolidinyl]-2-({ethyl[(8S)-5,6,7,8-tetrahydro-8-quinolinyl]amino}methyl)imidazo[1,2-d]pyridine-3-carboxamide], which IC50 is on record?
**A.** The IC50 was under 0.1 µM.

**Q.** How did the IC50 turn out when `CCCN(Cc1nc2cccc(N3CC[C@@H](N(C)C)C3)n2c1C#N)[C@H]1CCCc2cccnc21` [Example 46, 5-[(3R)-3-(Dimethylamino)-1-pyrrolidinyl]-2-({propyl[(8S)-5,6,7,8-tetrahydro-8-quinolinyl]amino}methyl)imidazo[1,2-a]pyridine-3-carbonitrile] was run?
**A.** Its IC50 is under 0.1 µM.

**Q.** For `CCCN(Cc1nc2cccc(N3CC[C@@H](N(C)C)C3)n2c1C(N)=O)[C@H]1CCCc2cccnc21` [Example 47, 5-[(3R)-3-(Dimethylamino)-1-pyrrolidinyl]-2-({propyl[(8S)-5,6,7,8-tetrahydro-8-quinolinyl]amino}methyl)imidazo[1,2-a]pyridine-3-carboxamide], which IC50 is on record?
**A.** Its IC50 is under 0.1 µM.

**Q.** Which IC50 does the source give for `CC(C)N(Cc1nc2cccc(N3CC[C@@H](N(C)C)C3)n2c1C#N)[C@H]1CCCc2cccnc21` [Example 50, 5-[(3R)-3-(Dimethylamino)-1-pyrrolidinyl]-2-({(1-methylethyl)[(8S)-5,6,7,8-tetrahydro-8-quinolinyl]amino}methyl)imidazo[1,2-a]pyridine-3-carbonitrile] here?
**A.** Its IC50 is under 0.1 µM.

**Q.** Which IC50 does the source give for `CC(C)N(Cc1nc2cccc(N3CC[C@@H](N(C)C)C3)n2c1C(N)=O)[C@H]1CCCc2cccnc21` [Example 51, 5-[(3R)-3-(Dimethylamino)-1-pyrrolidinyl]-2-({(1-methylethyl)[(8S)-5,6,7,8-tetrahydro-8-quinolinyl]amino}methyl)imidazo[1,2-a]pyridine-3-carboxamide] here?
**A.** Its IC50 is under 0.1 µM.

**Q.** `CN(C)[C@@H]1CCN(c2cccc3nc(CN(Cc4ccccc4)[C@H]4CCCc5cccnc54)c(C#N)n23)C1` [Example 53, 5-[(3R)-3-(Dimethylamino)-1-pyrrolidinyl]-2-({(phenylmethyl)[(8S)-5,6,7,8-tetrahydro-8-quinolinyl]amino}methyl)imidazo[1,2-a]pyridine-3-carbonitrile] was tested. Which IC50 did it give?
**A.** The IC50 was under 0.1 µM.

**Q.** For `CN(C)C1CCN(c2cccc3nc(CN(C)[C@H]4CCCc5cccnc54)c(C#N)n23)CC1` [Example 58, 5-[4-(dimethylamino)-1-piperidinyl]-2-({methyl[(8S)-5,6,7,8-tetrahydro-8-quinolinyl]amino}methyl)imidazo[1,2-a]pyridine-3-carbonitrile], which IC50 is on record?
**A.** Its IC50 is under 0.1 µM.

**Q.** How did the IC50 turn out when `CN(C)C1CCN(c2cccc3nc(CN(C)[C@H]4CCCc5cccnc54)c(C(N)=O)n23)CC1` [Example 59] was run?
**A.** The IC50 was under 0.1 µM.

**Q.** With `CCN(Cc1nc2cccc(N3CCC(N(C)C)CC3)n2c1C#N)[C@H]1CCCc2cccnc21` [Example 62, 5-[4-(dimethylamino)-1-piperidinyl]-2-({ethyl[(8S)-5,6,7,8-tetrahydro-8-quinolinyl]amino}methyl)imidazo[1,2-a]pyridine-3-carbonitrile] as the compound, how does the IC50 read?
**A.** Its IC50 is under 0.1 µM.

**Q.** Which IC50 does the source give for `CCN(Cc1nc2cccc(N3CCC(N(C)C)CC3)n2c1C(N)=O)[C@H]1CCCc2cccnc21` [Example 63, 5-[4-(dimethylamino)-1-piperidinyl]-2-({ethyl[(8S)-5,6,7,8-tetrahydro-8-quinolinyl]amino}methyl)imidazo[1,2-a]pyridine-3-carboxamide] here?
**A.** The IC50 was under 0.1 µM.

**Q.** For `CCCN(Cc1cn2c(N3CCC(N(C)C)CC3)cccc2n1)[C@H]1CCCc2cccnc21` [Example 64, (8S)—N-({5-[4-(dimethylamino)-1-piperidinyl]imidazo[1,2-a]pyridin-2-yl}methyl)-N-propyl-5,6,7,8-tetrahydro-8-quinolinamine], which IC50 is on record?
**A.** The IC50 was under 0.1 µM.

**Q.** For `CCCN(Cc1nc2cccc(N3CCC(N(C)C)CC3)n2c1C#N)[C@H]1CCCc2cccnc21` [Example 66, 5-[4-(dimethylamino)-1-piperidinyl]-2-({propyl[(8S)-5,6,7,8-tetrahydro-8-quinolinyl]amino}methyl)imidazo[1,2-a]pyridine-3-carbonitrile], which IC50 is on record?
**A.** Its IC50 is under 0.1 µM.

**Q.** `CCCN(Cc1nc2cccc(N3CCC(N(C)C)CC3)n2c1C(N)=O)[C@H]1CCCc2cccnc21` [Example 67, 5-[4-(dimethylamino)-1-piperidinyl]-2-({propyl[(8S)-5,6,7,8-tetrahydro-8-quinolinyl]amino}methyl)imidazo[1,2-a]pyridine-3-carboxamide] was tested. Which IC50 did it give?
**A.** The IC50 was under 0.1 µM.
